From ChEMBL document CHEMBL1201862, “PubChem BioAssay data set” (2004) come the findings set out here.

Each structure is given as a SMILES string. Active and inactive are the calls of the source. Some results are limits rather than exact numbers.

The test system of assay [1] is Vero. As to the kind of experiment: cells. The following applies: Chlorocebus sabaeus. Type of assay: functional.
Assay [2] is described as follows: Luminescence Cell-Based Dose Retest to Confirm Inhibitors of Cancer Stem Cells. [Related pubchem assays (depositor defined):AID2717, AID2721]. The assay is classed as functional. The following applies: Homo sapiens.
The subject of assay [3] is Vero. As to the kind of experiment: host cell cytotoxicity of antiviral hits, dose response, cytotoxicity control for West Nile virus antiviral project, secondary assay (AID 1650). Type of assay: functional. The settings on record: Chlorocebus sabaeus.
The next assay concerns the target CAAX prenyl protease 1 (Saccharomyces cerevisiae S288c, UniProt P47154). The assay is described as follows: Ste24 protease inhibitors, dose response, biochemical, S. cerevisiae, plate reader, cherry-pick (AID 488815).
Assay [4] can be described thus: HepG2 cell cytotoxicity, dose response, cytotoxicity control for non-replicating M. tuberculosis project (AID 489018). Type of assay: functional. The settings on record: Mycobacterium tuberculosis.
In assay [5] the test system is Vero. The assay is described as follows: cells. The assay is classed as functional, cell-based. The following applies: Chlorocebus sabaeus.
Assay [6] in a line: THP-1 cell cytotoxicity, dose response, cytotoxicity control for non-replicating M. tuberculosis project (AID 489025). Type of assay: functional.
A further assay has as its target CAAX prenyl protease 2 (Saccharomyces cerevisiae S288c, UniProt Q03530). The assay is classed as biochemical.
Assay [7] addresses Intestinal-type alkaline phosphatase (Mus musculus, UniProt P24822). As to the kind of experiment: PubChem AID 488874. The assay is classed as functional.
For assay [8], the target named is T1, Intestinal-type alkaline phosphatase (Homo sapiens, UniProt P09923). The assay is described as follows: human intestinal alkaline phosphatase activators, dose response, biochemical, luminescence, uHTS hits (AID 463120). Type of assay: functional.
T1 sequence (P09923 whole entry): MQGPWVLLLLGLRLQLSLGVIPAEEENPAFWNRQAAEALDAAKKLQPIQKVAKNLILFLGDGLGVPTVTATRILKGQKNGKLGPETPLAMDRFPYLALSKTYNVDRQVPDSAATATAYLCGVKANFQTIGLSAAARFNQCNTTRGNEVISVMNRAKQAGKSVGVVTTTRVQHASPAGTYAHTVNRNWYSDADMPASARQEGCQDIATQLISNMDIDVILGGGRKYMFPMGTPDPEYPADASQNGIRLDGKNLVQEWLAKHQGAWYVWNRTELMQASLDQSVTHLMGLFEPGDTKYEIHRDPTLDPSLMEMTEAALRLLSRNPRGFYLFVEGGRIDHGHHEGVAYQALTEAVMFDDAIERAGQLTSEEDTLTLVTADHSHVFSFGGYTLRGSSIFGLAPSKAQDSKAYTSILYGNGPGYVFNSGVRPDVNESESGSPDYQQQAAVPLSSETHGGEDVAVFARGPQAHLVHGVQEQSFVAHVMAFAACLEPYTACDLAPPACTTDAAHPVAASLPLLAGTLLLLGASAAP
A further assay has as its system H9c2. As to the kind of experiment: cells. The assay is classed as functional, cell-based. The settings on record: Rattus norvegicus, H9c2, Myocardium.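 Also: confirmatory concentration-response retest of ultra-high-throughput screening hits for modulation of myocardial damage; cell death induced by hydrogen peroxide oxidative stress; compound pretreatment for 60 min then peroxide exposure for 2 h; potency is for protecting the cells against peroxide damage rather than for killing them.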
The target of assay [9] is T2, Alkaline phosphatase, tissue-nonspecific isozyme (Homo sapiens, UniProt P05186).
T2 sequence (P05186 whole entry): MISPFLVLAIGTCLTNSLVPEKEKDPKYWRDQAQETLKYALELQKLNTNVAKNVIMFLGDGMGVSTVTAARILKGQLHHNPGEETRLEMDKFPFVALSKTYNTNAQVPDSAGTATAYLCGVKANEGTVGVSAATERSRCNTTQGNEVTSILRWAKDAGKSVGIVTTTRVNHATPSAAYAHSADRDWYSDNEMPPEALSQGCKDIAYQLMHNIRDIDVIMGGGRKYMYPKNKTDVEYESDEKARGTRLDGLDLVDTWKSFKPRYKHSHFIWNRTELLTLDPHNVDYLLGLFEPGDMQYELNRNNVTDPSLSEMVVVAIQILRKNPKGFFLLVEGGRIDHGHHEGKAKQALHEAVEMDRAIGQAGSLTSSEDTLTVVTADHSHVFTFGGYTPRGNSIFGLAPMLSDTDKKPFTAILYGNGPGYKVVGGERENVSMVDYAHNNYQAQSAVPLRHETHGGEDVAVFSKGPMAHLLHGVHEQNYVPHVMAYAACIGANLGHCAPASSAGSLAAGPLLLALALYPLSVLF
The assay is described as follows: TNAP enzyme activators, dose response, selectivity assay for human IAP activator project, biochemical, TNAP isozyme, human IAP uHTS hits (AID 488886).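 Also: potency of compounds raising TNAP activity as a selectivity check on IAP activators.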 Type of assay: functional.

Assay [10] has as its target T1, Intestinal-type alkaline phosphatase. As to the kind of experiment: human IAP activators, dose response, biochemical, luminescent, uHTS hits, set 2 (AID 488817).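 Also: potency of activators that raise enzyme activity.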 Type of assay: functional.

Chain of CAAX prenyl protease 2 (Q03530 whole entry): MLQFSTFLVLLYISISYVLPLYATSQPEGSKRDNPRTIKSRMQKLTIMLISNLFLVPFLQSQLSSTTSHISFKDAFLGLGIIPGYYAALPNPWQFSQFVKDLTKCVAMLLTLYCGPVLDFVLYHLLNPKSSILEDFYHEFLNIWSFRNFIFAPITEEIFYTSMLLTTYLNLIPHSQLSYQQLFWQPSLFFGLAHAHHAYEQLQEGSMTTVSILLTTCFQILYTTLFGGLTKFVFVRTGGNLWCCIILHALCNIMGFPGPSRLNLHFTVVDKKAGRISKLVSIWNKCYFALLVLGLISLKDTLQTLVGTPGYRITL
Chain of Intestinal-type alkaline phosphatase (Mus musculus, UniProt P24822) (P24822 whole entry): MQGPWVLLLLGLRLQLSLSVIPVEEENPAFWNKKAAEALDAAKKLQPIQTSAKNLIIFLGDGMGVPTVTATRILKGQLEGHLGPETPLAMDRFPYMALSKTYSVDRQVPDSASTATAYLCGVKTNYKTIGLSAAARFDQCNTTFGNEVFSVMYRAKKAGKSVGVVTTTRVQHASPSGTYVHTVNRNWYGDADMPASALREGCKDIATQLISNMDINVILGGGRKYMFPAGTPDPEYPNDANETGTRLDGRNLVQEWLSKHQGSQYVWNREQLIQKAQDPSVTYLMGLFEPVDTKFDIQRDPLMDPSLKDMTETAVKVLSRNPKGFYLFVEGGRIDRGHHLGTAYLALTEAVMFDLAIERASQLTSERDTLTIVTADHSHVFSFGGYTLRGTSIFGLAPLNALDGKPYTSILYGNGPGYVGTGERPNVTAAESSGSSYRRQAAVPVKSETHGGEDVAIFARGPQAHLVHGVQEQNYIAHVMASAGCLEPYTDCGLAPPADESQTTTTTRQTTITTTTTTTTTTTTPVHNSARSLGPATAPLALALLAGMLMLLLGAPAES
Chain of CAAX prenyl protease 1 (P47154 whole entry): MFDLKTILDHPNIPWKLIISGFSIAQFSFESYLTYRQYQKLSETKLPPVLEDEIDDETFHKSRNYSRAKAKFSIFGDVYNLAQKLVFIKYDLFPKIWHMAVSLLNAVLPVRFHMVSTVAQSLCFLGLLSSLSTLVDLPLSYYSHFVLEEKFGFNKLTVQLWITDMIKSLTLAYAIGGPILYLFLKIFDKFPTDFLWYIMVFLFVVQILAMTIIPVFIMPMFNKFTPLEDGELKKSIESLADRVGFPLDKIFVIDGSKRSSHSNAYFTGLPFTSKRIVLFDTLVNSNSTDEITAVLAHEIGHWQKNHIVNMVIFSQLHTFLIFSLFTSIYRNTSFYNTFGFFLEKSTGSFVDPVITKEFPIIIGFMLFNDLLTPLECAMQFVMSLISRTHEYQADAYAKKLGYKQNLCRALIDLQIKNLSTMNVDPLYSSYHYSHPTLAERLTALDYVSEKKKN

Regarding `CCN(CC)CCNC(=O)c1[nH]c2ccc(OCc3ccccc3)cc2c1C`, the CC50 was > 25 µM (active) with Vero [1], 29.4 µM (active) in the assay on Vero [3], 17 µM (active) in [4] and 25.6 µM (active) in assay [6]. The values for the AC50 (in [2]; at CAAX prenyl protease 1; on CAAX prenyl protease 2) were 1.18 µM (active), 4.58 µM (active) and 14.1 µM (active), respectively. Besides, the IC50 in the assay with Vero [5] was > 25 µM (active).
On to `CCOCCCNC(=O)CCC(=O)NNc1nc2ccccc2c2nc(-c3ccccc3)nn12`, for which the IC50 in assay [7] is 29.6 µM (active); in the assay on H9c2, > 79 µM (inactive). In addition, the results for the EC50 in assay [8], in assay [9] and in [10] were 12.6 µM (active), 17.7 µM (active) and 15.2 µM (active), respectively.

What is called CC50 is the concentration at which the toxic effect on the cells reaches its halfway point. By AC50 is commonly meant the concentration at which the activity in the assay is half-maximal. The term IC50 denotes the point on the concentration scale where inhibition reaches its midpoint. The EC50 is the concentration giving half of the maximal effect.
